Converted amounts (≈) assume the structure as drawn.
Legend:
[1] = In vitro anti-fungal activity, microtiter minimum inhibitory concentration (MIC) test, sensitive strains (MIC-S); assay type: cell-based; conditions: 48 h, pH 5.4, read-out: MIC-S
Experimental: (§1) The minimum inhibitory concentrations (MIC-R and MIC-S) were determined in accordance with the procedure set forth just below.
(§2) In vitro anti-fungal activity was determined in microtiter minimum inhibitory concentration (MIC) tests using Yeast Nitrogen […] (YNB without amino acids, Difco., Detroit, Mich.) at pH 5.4. Yeasts were grown overnight in Sabouraud Dextrose Broth. at 28° C. with shaking, and concentrations adjusted in sterile saline using a spectrophoptometer at 540 mμ. Compounds were dissolved in various vehicles and diluted in media to twice the final concentrations. The Cetus Pro/Pette system was used to serially dilute 50 μl in round bottom 96 well plates (Falcon, Lincoln Park, NJ.). The turbidometrically adjusted yeast suspensions were diluted 1:3,000 in YNB. These dilutions when added to the wells, produced a final inoculum of 3×10^3 /ml. Plates were incubated at 37° C. for 48 hours. MICs were defined as the lowest concentrations of compound that prevented visible growth. MICs were taken against the following organisms and expressed in the table above as the geometric mean. MIC-R and MIC-S mean respectively, MICs taken against resistant and sensitive strains.
Candida parapsilosis C67
Candida tropicalis C112
Torulopsis glabrata C95
Candida pseudotropicalis C967
Candida gullermondii C137
Sacchararomyces mutant C147

[2] = test system: Resistant Strains (Candida albicans C79, C6, C8, C31, C54, C70, C104, C138, C140; Candida stellatoidea C45); assay: In vitro anti-fungal activity, microtiter minimum inhibitory concentration (MIC) test, resistant strains (MIC-R); assay type: cell-based; conditions: 48 h, pH 5.4, read-out: MIC-R
Experimental: as §1, §2
Candida stellatoidea C45

CCCCCCCCCCCCNC(=O)[C@@H](NC(=O)[C@@H](N)CC[S+](C)[O-])[C@H]1O[C@@H](n2ccc(=O)[nH]c2=O)[C@H](O)[C@@H]1O (stereo partly shown) showed an MIC [1] of 181 µg/mL (≈ 301 µM) and an MIC [2] of 181 µg/mL (≈ 301 µM).
CCCCCCCCCCCCNC(=O)[C@@H](NC(=O)[C@@H](N)C(C)CSC)[C@H]1O[C@@H](n2ccc(=O)[nH]c2=O)[C@H](O)[C@@H]1O (stereo partly shown) gave an MIC [1] of 34 µg/mL (≈ 56.7 µM) and an MIC [2] of 23 µg/mL (≈ 38.3 µM).
Work on CCCCCCCCCCCCNC(=O)[C@@H](NC(=O)[C@@H](N)CCOC)[C@H]1O[C@@H](n2ccc(=O)[nH]c2=O)[C@H](O)[C@@H]1O yielded an MIC [1] of 111 µg/mL (≈ 195 µM) and an MIC [2] of 52 µg/mL (≈ 91.3 µM).
In the case of CCCCCCCCCCCCNC(=O)[C@@H](NC(=O)[C@@H](N)CSCc1ccccc1)[C@H]1O[C@@H](n2ccc(=O)[nH]c2=O)[C@H](O)[C@@H]1O, the MIC [1] is reported as > 147 µg/mL and the MIC [2] is reported as 111 µg/mL (≈ 171 µM).
For CCCCCCCCCCC(N)C(=O)N[C@H](C(N)=O)[C@H]1O[C@@H](n2ccc(=O)[nH]c2=O)[C@H](O)[C@@H]1O (stereo partly shown), the MIC [1] was > 256 µg/mL and the MIC [2] was > 256 µg/mL.
For CCCCCCCCCCCCNC(=O)[C@@H](NC(=O)[C@@H](N)CCCC)[C@H]1O[C@@H](n2ccc(=O)[nH]c2=O)[C@H](O)[C@@H]1O, the MIC [1] was 19.7 µg/mL (≈ 34.7 µM) and the MIC [2] was 13 µg/mL (≈ 22.9 µM).
CCCCCCCCCCCCNC(=O)[C@@H](NC(=O)C1(N)CC2CCC1C2)[C@H]1O[C@@H](n2ccc(=O)[nH]c2=O)[C@H](O)[C@@H]1O (stereo partly shown) showed an MIC [1] of 315 µg/mL (≈ 532 µM) and an MIC [2] of 104 µg/mL (≈ 176 µM).
C=C[C@@H](C)[C@H](N)C(=O)N[C@H](C(=O)NCCCCCCCCCCCC)[C@H]1O[C@@H](n2ccc(=O)[nH]c2=O)[C@H](O)[C@@H]1O [6'-dodecylamido-5-N-[2-S-amino-3-R-methyl-4-pentenoyl]-UPOC] showed an MIC [1] of 26 µg/mL (≈ 46 µM) and an MIC [2] of 18 µg/mL (≈ 31.8 µM).
